Laboratory results taken from patent US6916802B2, “Amino ceramide-like compounds and therapeutic methods of use” (Genzyme Corporation, priority 2002, dated 2005).

How the values were obtained:
[1] = tested on: GlcCer synthase of MDCK cell homogenates; assay: Inhibition of ceramide glucosyltransferase (GlcCer synthase) of MDCK cell homogenates; type: biochemical, canine
In short: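 MDCK cell sonicate (~0.2 mg protein) incubated with octanoyl sphingosine (85 μg, in dioleoylphosphatidylcholine/sulfatide liposomes) and UDP-[^3H]glucose in a thermostatted ultrasonic bath. Aromatic inhibitors were dried into the tube; aliphatic inhibitors were incorporated in the substrate liposomes.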

[2] = tested on: GlcCer synthase of rabbit liver microsomes; assay: GlcCer synthase of rabbit liver microsomes; type: biochemical
[3] = target: T1, GlcCer synthase (Canis lupus familiaris, UniProt A0A8I3MXG6); assay: Glycosylceramide synthase activity, MDCK cell homogenate (Specific Example 2); type: biochemical, canine
T1 sequence (A0A8I3MXG6 1-394): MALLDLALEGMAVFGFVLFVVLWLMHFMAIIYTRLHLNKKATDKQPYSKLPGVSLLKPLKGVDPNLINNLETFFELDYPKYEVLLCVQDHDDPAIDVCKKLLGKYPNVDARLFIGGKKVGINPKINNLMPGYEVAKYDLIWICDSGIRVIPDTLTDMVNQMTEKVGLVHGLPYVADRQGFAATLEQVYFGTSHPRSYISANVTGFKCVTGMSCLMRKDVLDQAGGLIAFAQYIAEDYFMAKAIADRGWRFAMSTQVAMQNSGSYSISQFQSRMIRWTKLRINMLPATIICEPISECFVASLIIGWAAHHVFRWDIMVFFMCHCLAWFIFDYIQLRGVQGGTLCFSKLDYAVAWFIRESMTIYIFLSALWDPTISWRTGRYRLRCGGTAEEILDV
Method: Glycosylceramide synthase activity. The enzyme activity was measured by the method previously described in Skukla, G. et al., Biochim. Biophys. Acta, 1083:101-108 (1991). MDCK cell homogenate (120 μg of protein) was incubated with uridinediphosphate [^3H]glucose (100,000 cpm) and liposomes consisting of 85 μg octanoylsphingosine, 570 μg dioleoyphosphatidylcholine and 100 μg sodium sulfatide in 200 μl of reaction mixture and kept for 1 h at 37° C. P4 and P4 derivatives dissolved in dimethyl sulfoxide were dispersed into the reaction mixture after adding liposomes. The final concentration of dimethyl sulfoxide was kept 1% under which the enzyme activity was not at all inhibited.

[4] = target: T2, 1-O-acylceramide synthase (Canis lupus familiaris, UniProt Q6XPZ3); assay: 1-O-acylceramide synthase (transacylase) assay; type: biochemical; conditions: D-threo enantiomers, FIG. 12
T2 construct: the 1-O-acylceramide synthase assayed in the cellular homogenates; endogenous in cells; host or cells: cellular homogenates (MDCK, from context)
T2 sequence (Q6XPZ3 32-408): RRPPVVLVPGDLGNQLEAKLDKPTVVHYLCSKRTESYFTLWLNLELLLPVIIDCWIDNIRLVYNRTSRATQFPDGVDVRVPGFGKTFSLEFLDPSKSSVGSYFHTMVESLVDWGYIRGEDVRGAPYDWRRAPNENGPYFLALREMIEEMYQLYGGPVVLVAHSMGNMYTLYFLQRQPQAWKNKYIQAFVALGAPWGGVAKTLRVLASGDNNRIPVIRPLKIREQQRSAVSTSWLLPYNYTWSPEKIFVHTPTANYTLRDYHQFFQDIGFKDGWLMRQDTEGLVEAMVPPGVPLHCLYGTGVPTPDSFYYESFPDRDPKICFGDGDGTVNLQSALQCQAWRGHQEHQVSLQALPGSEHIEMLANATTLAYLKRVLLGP
Source text: Distinguishing Between Inhibition of GlcCer Synthase and 1-O-acylceramide Synthase Inhibition. […] An alternative pathway for ceramide metabolism was subsequently identified, the acylation of ceramide at the 1-hydroxyl position, which was blocked by both threo and erythro diastereomers of PDMP. The specificities of D-threo-P4, D-threo-3′,4′-ethylenedioxy-P4, and D-threo-(4′-hydroxy)-P4 for GlcCer synthase were studied by assaying the transacylase.

[5] = tested on: MDCK cells; assay: GlcCer, ceramide and diradylglycerol content of treated MDCK cells (Specific Example 2); type: cell-based, canine
Method: Cell culture and lipid extraction. One half million of MDCK cells were seeded into 10 cm style dish containing 8 ml serum free DMEM supplemented medium. Shayman, J. A. et al., J. Biol. Chem., 265:12135-12138 (1990). […] The GlcCer synthase inhibitors were added into the medium as a one to one complex with delipidated BSA. Abe, A. et al., J. Lipid. Res., 36:611-621 (1995); Abe, A. et al., Biochim. Biophys. Acta, 1299:331-341 (1996). The cells were incubated for 24 h or 48 h with the inhibitors. After the incubation, the cells were washed twice with 8 ml of cold PBS and fixed with 2 ml of cold methanol. The fixed cells were scraped and transferred to a glass tube. Another one ml of methanol was used to recover the remaining cells in the dish.
Three ml of chloroform was added to the tube and briefly sonicated using a water bath type sonicator. After centrifugation at 800 g for 5 min, the supernatant was transferred into another glass tube. The residues were reextracted with chloroform/methanol (1/1). After the centrifugation, the resultant supernatant was combined with the first one. The residues were air-dried and kept for protein analysis. Adding 0.9% NaCl to the supematant combined, the ratio of chloroform/methanol/aqueous was adjusted to 1/1/1. After centrifugation 800 g for 5 min, the upper layer was discarded. Methanol/water (1/1) with the same amount of volume of the lower layer was used to wash. The resultant lower layer was transferred into a small glass tube and dried down under a stream of nitrogen gas. A part of the lipid was used for lipid phosphate determination. Ames, B. N., Methods Enzymol., 8:115-118 (1966). The remainder was analyzed using HPTLC (Merck).
In order to determine whether inhibition of 1-O-acylceramide synthase was the basis for inhibitor mediated ceramide accumulation, the ceramide and diradylglycerol levels of MDCK cells treated D-threo-P4, D-threo-3′,4′-ethylenedioxy-P4, and D-threo-(4′-hydroxy)-P4 were measured (Table 9). MDCK cells (5×10^5) were seeded into a 10 cm dish and incubated for 24 h. Following the incubation, the cells were treated for 24 or 48 h with or without P4 or the phenyl substitute homologues. Both ceramide and diradylglycerol contents were determined by the method of Preis, J. et al., J. Biol. Chem., 261:8597-8600 (1986). GlcCer content was measured densitometrically by a video camera and use of NIH image 1.49. Significant increases in both ceramide and diradylglycerol occurred only in cells treated with inhibitor concentrations in excess of 1 mM. This was approximately 30-fold lower than the concentration required for inhibition of the 1-O-acylceramide synthase assayed in the cellular homogenates. […] Abe, A. et al., Biochim. Biophys. Acta, 1299:331-341 (1996).
(§1) Effects of D-threo-P4, D-threo4′-hydroxy-P4 and D-threo-3,4′-ethylenedioxy-P4 on GlcCer Synthesis and Cell Growth. To confirm the cellular specificity of D-threo-3′,4′-ethylenedioxy-P4 and D-threo-(4′-hydroxy)-P4 as compared to D-threo-P4, MDCK cells were treated with different concentrations of the inhibitors. The total protein amount in each sample was determined by the BCA method. In GlcCer analysis, lipid samples and standard lipids were applied to the same HPTLC plate pre-treated with borate and developed in a solvent consisting of C/M/W (63/24/4). The level of GlcCer was estimated from a standard curve obtained using a computerized image scanner. The values were normalized on the basis of the phospholipid content. The results are shown in FIG. 7, wherein each bar is the average values from three dishes, with error bars corresponding to one standard deviation. In the control, the total protein and GlcCer were 414±47.4 μg/dish and 24.3±1.97 ng/nmol phosphate, respectively.

[6] = tested on: MDCK cells; assay: Cell growth of treated MDCK cells, total protein (Specific Example 2); type: cell-based, canine
Method: Cell culture and lipid extraction. One half million of MDCK cells were seeded into 10 cm style dish containing 8 ml serum free DMEM supplemented medium. Shayman, J. A. et al., J. Biol. Chem., 265:12135-12138 (1990). After 24 h the medium was replaced with 8 ml of the medium containing 0, 11.8, 118 or 1180 nM D-t-P4, D-t-3′,4′-ethylenedioxy-P4 or D-4′-hydroxy)-P4. The GlcCer synthase inhibitors were added into the medium as a one to one complex with delipidated BSA. Abe, A. et al., J. Lipid. Res., 36:611-621 (1995); Abe, A. et al., Biochim. Biophys. Acta, 1299:331-341 (1996). The cells were incubated for 24 h or 48 h with the inhibitors. After the incubation, the cells were washed twice with 8 ml of cold PBS and fixed with 2 ml of cold methanol. The fixed cells were scraped and transferred to a glass tube. Another one ml of methanol was used to recover the remaining cells in the dish.
as §1

inhibitory activity against GlcCer synthase of rabbit liver microsomes [2]	activity in blocking 1-O-acylceramide synthase [4]	Compound	activity against GlcCer synthase, in words [1]	potency as GlcCer synthase inhibitor, in words [3]	GlcCer lost from the cells (depletion) ([5]; 11.3 nM inhibitor)	Ceramide (pmol/nmol phospholipids) ([5]; 11.3 nM, 24 h)	Diradylglycerol (pmol/nmol phospholipids) ([5]; 11.3 nM, 24 h)	Ceramide (pmol/nmol phospholipids) ([5]; 11.3 nM, 48 h)	Diradylglycerol (pmol/nmol phospholipids) ([5]; 11.3 nM, 48 h)	Ceramide (pmol/nmol phospholipids) ([5]; 113 nM, 24 h)	Diradylglycerol (pmol/nmol phospholipids) ([5]; 113 nM, 24 h)	Ceramide (pmol/nmol phospholipids) ([5]; 113 nM, 48 h)	Diradylglycerol (pmol/nmol phospholipids) ([5]; 113 nM, 48 h)	level of ceramide versus untreated cells ([5]; 1130 nM)	Ceramide (pmol/nmol phospholipids) ([5]; 1130 nM, 24 h)	Diradylglycerol (pmol/nmol phospholipids) ([5]; 1130 nM, 24 h)	Ceramide (pmol/nmol phospholipids) ([5]; 1130 nM, 48 h)	Diradylglycerol (pmol/nmol phospholipids) ([5]; 1130 nM, 48 h)	total protein versus untreated cells ([6]; 1130 nM)	total protein content versus untreated cells ([6]; 11.3 or 113 nM)
no inhibitory activity		CCCCCCCCCCCCCCCC(=O)NC(CN1CCN(c2ccccc2)CC1)C(O)c1ccccc1 (mixture of isomers) [BML-112]	little or no activity																	
		CCCCCCCCCCCCCCCC(=O)N[C@H](CN1CCCC1)[C@H](O)c1ccc(OC)c(OC)c1 [D-t-3′,4′-dimethoxy-P4]		inferior to these dioxy derivatives																
	comparable activity	CCCCCCCCCCCCCCCC(=O)N[C@H](CN1CCCC1)[C@H](O)c1ccc(O)cc1 [D-threo-4′-hydroxy-P4, D-t-4′-hydroxy-1-phenyl-2-palmitoylamino-3-pyrrolidino-1-propanol]		twice as active as the p-methoxy compound	Approximately 66%	4.29 ± 0.71	30.9 ± 2.01	6.70 ± 0.29	38.4 ± 1.44	5.09 ± 0.95	31.5 ± 3.84	7.47 ± 0.29	41.5 ± 0.66	two times higher	7.38 ± 0.13	38.5 ± 3.84	13.4 ± 1.03	47.2 ± 2.51	significant decrease	little difference
